Results: patent US7470671B2, “Thioxylose compounds, preparation method thereof, pharmaceutical compositions containing same and use thereof in therapeutics” (Laboratoire Fournier, priority 2003, dated 2008)
Structures can show the parent of a compound that is named as a salt. Where two headings read alike, the source gives them in different places.

Test system: venous thrombosis
Assay: venous thrombosis test in the rat (venous stasis under hypercoagulation with factor Xa, Wessler technique)
Assay type: in vivo
Conditions: Wistar male rats
Experimental: The antithrombotic activity of the compounds according to the invention was studied in vivo in the rat by means of a test that reproduces a venous thrombosis.
The venous thrombosis was induced according to the protocol described in Thromb. Haemost., 1992, 67(1), 176-179. The intravenous or oral activity was studied according to the following operating protocol:
The experiments are performed on non-fasted Wistar male rats weighing 250 to 280 g, divided into groups of 10 animals each. The test products are administered either orally (tubage) dissolved or suspended in isotonic solution, or by intravenous injection dissolved in isotonic solution or in a PEG 400/water mixture. The concentration of the compounds is calculated so that the amount of solution absorbed is 2 ml/kg by oral administration and 1 ml/kg by intravenous injection. A thrombosis is induced at a time T (0.5, 2, 4 or 8 hours) after administration of the product, and the thrombus formed is removed and weighed. To induce this thrombosis, a venous stasis is created under hypercoagulation according to the technique described by WESSLER (J Applied Physiol., 1959, 943-946), the hypercoagulating agent used being a solution of activated factor X (Xa) having a concentration of 7.5 nKat/kg, supplied by Biogenic (Montpellier). The venous stasis is effected exactly 15 seconds after injection of the hypercoagulating agent. The activity of the test compounds was checked at different doses after they had been administered either orally (p.o.) or intravenously (i.v.). The thrombosis was induced 2 hours or 4 hours after oral administration of the compound and 2 hours after intravenous administration of the compound.

[1] = Rattus norvegicus, po, 4 h, oral, thrombosis induced 4 h after administration, read-out: Activity % (percentage inhibition of thrombus formation)
[2] = Rattus norvegicus, po, 2 h, oral, thrombosis induced 2 h after administration, read-out: Activity % (percentage inhibition of thrombus formation)
[3] = Rattus norvegicus, iv, 2 h, intravenous, thrombosis induced 2 h after administration, read-out: Activity % (percentage inhibition of thrombus formation)
[4] = intravenous, dose 2.5 mg/kg, thrombosis induced 2 h after administration

O[C@@H]1[C@@H](O)[C@H](Oc2cncc(Cl)c2)SC[C@H]1O [Example 18, 5-Chloro-3-Pyridinyl 5-Thio-β-D-Xylopyranoside]
inhibition in vivo at 3 mg/kg [1]: 46%

COC(=O)O[C@@H]1[C@@H](OC(=O)OC)[C@H](OC(=O)OC)CS[C@H]1Oc1cccnc1 [Example 31A, 3-Pyridinyl 2,3,4-Tris-O-(Methoxycarbonyl)-5-Thio-β-D-Xylopyranoside Hydrochloride]
inhibition in vivo at 5.6 mg/kg (Rattus norvegicus, po, 4 h, oral, dose 5.6 mg/kg, thrombosis induced 4 h after administration, read-out: Activity % (percentage inhibition of thrombus formation)): 63%

O[C@@H]1[C@@H](O)[C@H](Oc2cccnc2Cl)SC[C@H]1O [Example 37, 2-Chloro-3-Pyridinyl 5-Thio-β-D-Xylopyranoside]
inhibition in vivo at 6 mg/kg [2]: 96%

CC(=O)O[C@@H]1[C@@H](OC(C)=O)[C@H](OC(C)=O)CS[C@H]1Oc1cccnc1Cl [Example 36, 2-Chloro-3-Pyridinyl 2,3,4-Tri-O-Acetyl-5-Thio-β-D-Xylopyranoside]
inhibition in vivo at 6 mg/kg [2]: 91%

Cc1ncccc1O[C@@H]1SC[C@@H](O)[C@H](O)[C@H]1O [Example 12, 2-Methyl-3-Pyridinyl 5-Thio-β-D-Xylopyranoside]
inhibition in vivo at 3 mg/kg [1]: 52%

O[C@@H]1[C@@H](O)[C@H](Oc2ccc(C(F)(F)F)nc2)SC[C@H]1O [Example 41, 6-(Trifluoromethyl)-3-Pyridinyl 5-Thio-β-D-Xylopyranoside]
inhibition in vivo at 6 mg/kg [2]: 97%

CC(=O)O[C@@H]1[C@@H](OC(C)=O)[C@H](OC(C)=O)CS[C@H]1Oc1cccnc1 [Example 1A, 3-Pyridinyl 2,3,4-tri-O-acetyl-5-thio-β-D-Xylopyranoside Methanesulfonate]
inhibition in vivo at 4 mg/kg [3]: 83%
inhibition in vivo at 6 mg/kg [1]: 51%

O[C@@H]1[C@@H](O)[C@H](Oc2cncc(F)c2)SC[C@H]1O [Example 49, 5-Fluoro-3-Pyridinyl 5-Thio-β-D-Xylopyranoside]
inhibition in vivo at 6 mg/kg [2]: 90%

COC(=O)O[C@@H]1[C@@H](OC(=O)OC)[C@H](OC(=O)OC)CS[C@H]1Oc1cccnc1 [Example 31B, 3-Pyridinyl 2,3,4-Tris-O-(Methoxycarbonyl)-5-Thio-β-D-Xylopyranoside Methanesulfonate]
inhibition in vivo at 5 mg/kg [3]: 88%
inhibition in vivo at 8 mg/kg (Rattus norvegicus, po, 4 h, oral, dose 8 mg/kg, thrombosis induced 4 h after administration, read-out: Activity % (percentage inhibition of thrombus formation)): 94%

CCCC(=O)O[C@@H]1[C@@H](OC(=O)CCC)[C@H](OC(=O)CCC)CS[C@H]1Oc1cccnc1 [Example 93, 3-Pyridinyl 2,3,4-Tri-O-Butanoyl-5-Thio-β-D-Xylopyranoside]
inhibition in vivo at 6 mg/kg [2]: 81%

N#Cc1ncccc1O[C@@H]1SC[C@@H](O)[C@H](O)[C@H]1O [Example 20, 2-Cyano-3-Pyridinyl 5-Thio-β-D-Xylopyranoside]
inhibition in vivo at 3 mg/kg [1]: 50%

Cl.O[C@@H]1[C@@H](O)[C@H](Oc2cccnc2)SC[C@H]1O [Example 2C, 3-Pyridinyl 5-Thio-β-D-Xylopyranoside Hydrochloride]
inhibition in vivo at 4 mg/kg [3]: 95%
inhibition in vivo at 6 mg/kg [1]: 55%
Activity % (percentage inhibition of thrombus formation) [4]: 72%

CS(=O)(=O)O.O[C@@H]1[C@@H](O)[C@H](Oc2cccnc2)SC[C@H]1O [Example 2A, 3-Pyridinyl 5-Thio-β-D-Xylopyranoside Methanesulfonate]
inhibition in vivo at 5 mg/kg [3]: 94%
inhibition in vivo at 4.2 mg/kg (Rattus norvegicus, po, 2 h, oral, dose 4.2 mg/kg, thrombosis induced 2 h after administration, read-out: Activity % (percentage inhibition of thrombus formation)): 96%
Activity % (percentage inhibition of thrombus formation) [4]: 68%

O[C@@H]1[C@@H](O)[C@H](Oc2cccnc2)SC[C@H]1O [Example 2, 3-Pyridinyl 5-Thio-β-D-Xylopyranoside]
inhibition in vivo at 2.5 mg/kg (Rattus norvegicus, iv, 2 h, intravenous, dose 2.5 mg/kg, thrombosis induced 2 h after administration, read-out: Activity % (percentage inhibition of thrombus formation)): 72%
inhibition in vivo at 1.5 mg/kg (Rattus norvegicus, po, 4 h, oral, dose 1.5 mg/kg, thrombosis induced 4 h after administration, read-out: Activity % (percentage inhibition of thrombus formation)): 67%
inhibition in vivo at 3 mg/kg [1]: 91%
